Patent US7323458B1, “Dihydrobenzodiazepins and their use for treating dyslipidemia” (Merck Patent Gesellschaft Mit Beschrankter Haftung, priority 1999, dated 2008)

Experiments:
secretion of apo CIII = test: Reduction of apo CIII secretion by Hep G2 human hepatocytes in culture (ELISA); assay type: cell-based; settings: HepG2, Hep G2 cells, 24 hours incubation, read-out: concentration which gives a 50% inhibition of the secretion of Apo CIII
Experimental: The hypolipidaemiant activity of the compounds of the invention result from their ability to reduce the secretion of apo CIII.
The Hep G2 cell line is derived from a human hepatic carcinoma (ref. ECACC No. 85011430).
The cells are cultured at 37° C., 5% CO2 in 96-well microtitration plates at a rate of 40 000 cells (200 μl) per well in a DMEM buffer, 10% foetal calf serum, 1% Glutamax+antibiotics, for 24 hours. […] The cells are incubated for 24 hours at 37° C., 5% CO2 and the medium is then removed.
The amount of apolipoprotein CIII secreted into the medium is measured by means of an assay of ELISA type. Each sample of culture medium is diluted 5-fold in a 100 mM phosphate buffer, 1% BSA. […]
The optical density is read directly using a spectrophotometer at 492 nm. The amount of Apo CIII is calculated relative to a calibration curve produced using an assayed human serum of Apo CIII and diluted under the same conditions as the Apo CIII contained in the culture medium. […]
The active substances bring about a reduction in the secretion of Apo CIII into the medium by the adherent cells. The concentration of Apo CIII is measured for each treatment and compared with the control test (no treatment).
The percentage of inhibition is calculated according to: […]
(§1) The percentage of inhibition is calculated only for the substances that show no toxicity on the Hep G2 cells.

Hep G2 cells = test: Toxicity on the cells by staining with neutral red; assay type: cell-based, human; settings: for the concentrations studied
Experimental: In the absence of a chemical treatment, the response of the cells is 100% (0% inhibition). Under the conditions used, the effect of DMSO on the cells is negligible. The toxicity of the chemical substances on the cells is measured by the technique of staining with neutral red.
as §1

Compound	melting point [°C]	IC50 (secretion of apo CIII) [µM]	cell toxicity (Hep G2 cells)
C1=C(c2ccc(-c3ccccc3)cc2)N2CCc3ccccc3N=C2S1 [Example 4, 3-(biphenyl-4-yl)-5,6-dihydrothiazolo[2,3-b]-1,3-benzodiazepine]	–	17.4	No cell toxicity is observed
C1=C(c2ccc(Oc3ccccc3)cc2)N2CCc3ccccc3N=C2S1 [Example 67]	204 to 205	–	–

Now from value to compound, other results behind:

melting point [°C]	Compound	IC50 (secretion of apo CIII) [µM]	cell toxicity (Hep G2 cells)
231 to 233	CCOC(=O)c1ccc(C2=CSC3=Nc4ccccc4CCN23)cc1 [Example 36, 3-[4-(ethoxycarbonyl)phenyl]-5,6-dihydro-thiazolo-[2,3-b]-1,3-benzodiazepine]	–	–
188.5 to 189.5	C1=C(c2ccc3ccccc3c2)N2CCc3ccccc3N=C2S1 [Example 47]	–	–
194 to 196	CC1=CSC2=Nc3ccccc3CCN12 [Example 50]	–	–
